Values quoted from earlier work, collected in article PMC11187563, “The importance of tyrosines in multimers of cyclic RGD nonapeptides: towards αvβ6-integrin targeted radiotherapeutics” (RSC Medicinal Chemistry, 2024).

System: αvβ6-integrin
Conditions: compared with its two siblings with one Phe replaced by a Tyr; cited from earlier work

cyclo[FRGDLAFp(NMe)K]
αvβ6-integrin affinity and subtype selectivity: slightly better αvβ6-integrin affinity and subtype selectivity
